Measured values published in patent publication US20250084056A1, “SUBSTITUTED OXOISOINDOLINYL PIPERIDINE-2,6-DIONE COMPOUNDS” (BRISTOL-MYERS SQUIBB COMPANY, priority 2023, published 2025).

How the values were obtained:
Type in all cases: cell-based
[1] = biological target: Cyclin E1 (Homo sapiens, UniProt P24864+Q96SW2); assay: Cyclin E1 Cellular Degradation Assay (MSD); set-up: endogenous in cells; host or cells: OVCAR3; details: for DC50 / Dmax: Cyclin E1 cellular degradation; for Dmax: maximum degradation; for Ratio of GSPT1 DC50/Cyclin E1 DC50: selectivity for degradation of Cyclin E1 over GSPT1
Method in brief: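 Cyclin E1 remaining after 24 h compound exposure of OVCAR3 cells was quantified in lysates by electrochemiluminescent MSD sandwich assay. DC50 (50% response concentration) and Dmax (maximum response) were calculated, with 110% response set by a reference compound at […].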

[2] = biological target: GSPT1 (Homo sapiens, UniProt P15170+Q96SW2); assay: GSPT1 Cellular Degradation Assay (DF15-GSPT1-ePL); set-up: expressed in transfected cells; details: DF15-GSPT1-ePL cells, 20 hours
Method in brief: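 DC50 and Dmax were derived from chemiluminescence, with 75% response set by the reference compound at […]. Readout was ePL enzyme-fragment complementation in a DF15 line expressing chimeric GSPT1. Cells were exposed to compound for 20 h at 37 °C in RPMI 1640 with 10% FBS, cooled 30 min, then lysed with substrate for 60 min.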

[3] = system: Phospho-Rb (Ser807/811); assay: Phospho-Retinoblastoma (pRB) Cellular Assay; details: Homo sapiens, OVCAR-3, NIH OVCAR3 cells, 24 hours; for IC50: concentration giving 50% response; for Emax: maximum response, reference compound at 10 μM = 100%, read-out: pRB Ymax
Method in brief: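 Phospho-Rb (Ser807/811) kit read-out on EnVision after lysis (≥4 h, room temperature, dark) of OVCAR3 cells exposed to compound dilutions for 24 h. IC50 and maximum response Ymax are relative to a 10 μM reference compound defining 100%.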

Sequence of Cyclin E1 (P24864 whole entry): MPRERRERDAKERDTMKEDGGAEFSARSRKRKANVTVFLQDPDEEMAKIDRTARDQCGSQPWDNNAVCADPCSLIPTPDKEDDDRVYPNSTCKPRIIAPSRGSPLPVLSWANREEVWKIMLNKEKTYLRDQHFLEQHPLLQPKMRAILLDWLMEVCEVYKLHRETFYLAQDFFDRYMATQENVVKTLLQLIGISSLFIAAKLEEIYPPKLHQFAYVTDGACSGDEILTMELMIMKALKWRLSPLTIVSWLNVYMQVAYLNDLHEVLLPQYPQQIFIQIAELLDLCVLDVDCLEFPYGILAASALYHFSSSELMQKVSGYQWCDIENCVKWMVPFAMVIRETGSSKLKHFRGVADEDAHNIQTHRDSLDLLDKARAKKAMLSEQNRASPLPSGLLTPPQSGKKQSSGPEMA
Sequence of Cyclin E1 (Q96SW2 whole entry): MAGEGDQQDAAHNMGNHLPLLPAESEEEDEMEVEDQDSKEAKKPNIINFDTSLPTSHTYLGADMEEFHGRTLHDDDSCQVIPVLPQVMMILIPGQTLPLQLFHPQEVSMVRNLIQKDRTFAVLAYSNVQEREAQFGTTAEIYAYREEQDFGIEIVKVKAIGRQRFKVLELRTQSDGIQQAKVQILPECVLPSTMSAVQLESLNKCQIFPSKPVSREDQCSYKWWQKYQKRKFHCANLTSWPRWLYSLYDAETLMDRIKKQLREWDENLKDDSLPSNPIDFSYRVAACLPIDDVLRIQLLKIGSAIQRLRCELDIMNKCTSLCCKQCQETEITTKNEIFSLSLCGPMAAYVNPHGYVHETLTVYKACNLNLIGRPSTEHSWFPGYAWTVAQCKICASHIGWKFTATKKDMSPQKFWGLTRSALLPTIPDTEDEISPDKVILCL
Sequence of Cyclin E1 (Q16531 whole entry partner): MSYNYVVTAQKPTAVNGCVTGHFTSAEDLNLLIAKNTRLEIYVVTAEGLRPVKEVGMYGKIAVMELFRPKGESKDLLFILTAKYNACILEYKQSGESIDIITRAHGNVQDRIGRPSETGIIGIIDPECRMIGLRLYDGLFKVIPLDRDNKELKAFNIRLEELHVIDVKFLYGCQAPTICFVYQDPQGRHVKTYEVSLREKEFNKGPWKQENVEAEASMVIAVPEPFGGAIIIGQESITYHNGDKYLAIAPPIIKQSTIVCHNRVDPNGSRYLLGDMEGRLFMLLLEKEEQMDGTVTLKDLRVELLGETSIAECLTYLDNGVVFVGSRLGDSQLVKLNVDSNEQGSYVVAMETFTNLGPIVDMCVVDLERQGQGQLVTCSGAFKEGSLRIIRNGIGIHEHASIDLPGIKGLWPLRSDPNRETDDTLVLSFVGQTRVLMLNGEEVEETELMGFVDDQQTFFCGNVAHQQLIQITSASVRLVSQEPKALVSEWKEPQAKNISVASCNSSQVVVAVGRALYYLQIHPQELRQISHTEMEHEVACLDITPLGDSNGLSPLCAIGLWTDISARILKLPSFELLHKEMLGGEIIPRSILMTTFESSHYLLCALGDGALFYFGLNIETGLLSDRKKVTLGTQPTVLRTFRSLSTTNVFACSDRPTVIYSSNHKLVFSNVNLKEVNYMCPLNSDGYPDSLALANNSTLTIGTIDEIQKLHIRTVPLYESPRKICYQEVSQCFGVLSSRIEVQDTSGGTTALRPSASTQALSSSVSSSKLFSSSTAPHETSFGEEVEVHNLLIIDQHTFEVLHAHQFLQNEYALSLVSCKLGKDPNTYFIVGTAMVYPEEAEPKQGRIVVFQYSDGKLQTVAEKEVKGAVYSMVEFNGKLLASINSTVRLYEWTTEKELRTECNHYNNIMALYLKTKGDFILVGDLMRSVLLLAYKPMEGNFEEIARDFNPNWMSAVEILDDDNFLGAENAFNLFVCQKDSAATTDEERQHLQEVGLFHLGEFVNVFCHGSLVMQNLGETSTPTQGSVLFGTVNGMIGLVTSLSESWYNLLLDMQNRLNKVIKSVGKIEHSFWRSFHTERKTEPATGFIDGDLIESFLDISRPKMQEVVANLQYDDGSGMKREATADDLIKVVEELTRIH
Sequence of GSPT1 (P15170 whole entry, the tested form may be a part): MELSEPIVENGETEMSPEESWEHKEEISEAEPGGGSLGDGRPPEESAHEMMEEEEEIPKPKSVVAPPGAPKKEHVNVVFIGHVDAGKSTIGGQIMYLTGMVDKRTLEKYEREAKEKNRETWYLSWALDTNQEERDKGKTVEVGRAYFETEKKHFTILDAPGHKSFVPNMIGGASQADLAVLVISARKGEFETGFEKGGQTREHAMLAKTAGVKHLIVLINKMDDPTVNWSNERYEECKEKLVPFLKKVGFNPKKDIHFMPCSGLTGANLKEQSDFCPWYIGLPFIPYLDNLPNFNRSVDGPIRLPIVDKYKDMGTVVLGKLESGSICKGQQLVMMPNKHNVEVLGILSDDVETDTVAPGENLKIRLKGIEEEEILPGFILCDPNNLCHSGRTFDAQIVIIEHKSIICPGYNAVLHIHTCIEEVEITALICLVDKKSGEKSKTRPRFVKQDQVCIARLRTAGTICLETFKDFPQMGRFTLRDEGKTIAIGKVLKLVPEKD
Sequence of GSPT1 (Q96SW2 whole entry, the tested form may be a part): as the sequence (Q96SW2 whole entry) above
Sequence of GSPT1 (Q16531 whole entry partner, the tested form may be a part): as the sequence (Q16531 whole entry partner) above

DC50 [1]	Dmax [1]	Ratio of GSPT1 DC50/Cyclin E1 DC50 [1]	DC50 [2]	Dmax [2]	IC50 [3]	Compound	Emax [3]
0.338 µM	103%	>41	> 14 µM	5%	0.159 µM	COc1cc(Oc2ccccc2)ccc1NC(=O)OCc1ccc2c(c1OC)C(=O)N(C1CCC(=O)NC1=O)C2 (centres unmarked) [Example 93, [2-(2,6-dioxopiperidin-3-yl)-4-methoxy-3-oxo-2,3-dihydro-1H-isoindol-5-yl]methyl N-(2-methoxy-4-phenoxyphenyl)carbamate]	111%
0.082 µM	100%	>171	> 14 µM	11%	0.483 µM	COc1c(COC(=O)Nc2ccc(Oc3cc(C)cc(C)c3)cc2)ccc2c1C(=O)N(C1CCC(=O)NC1=O)C2 (centres unmarked) [Example 12, [2-(2,6-dioxopiperidin-3-yl)-4-methoxy-3-oxo-2,3-dihydro-1H-isoindol-5-yl]methyl N-[4-(3,5-dimethylphenoxy)phenyl]carbamate]	111%
0.139 µM	111%	>101	> 14 µM	46%	0.069 µM	COc1cc(Oc2cccc(F)c2)ccc1NC(=O)OCc1ccc2c(c1OC)C(=O)N(C1CCC(=O)NC1=O)C2 (centres unmarked) [Example 48, [2-(2,6-dioxopiperidin-3-yl)-4-methoxy-3-oxo-2,3-dihydro-1H-isoindol-5-yl]methyl N-[4-(3-fluorophenoxy)-2-methoxyphenyl]carbamate]	108%
0.091 µM	107%	44	4 µM	46%	0.128 µM	COc1c(COC(=O)Nc2ccc(Oc3ccc(F)c(F)c3)cc2C)ccc2c1C(=O)N(C1CCC(=O)NC1=O)C2 (centres unmarked) [Example 38, [2-(2,6-dioxopiperidin-3-yl)-4-methoxy-3-oxo-2,3-dihydro-1H-isoindol-5-yl]methyl N-[4-(3,4-difluorophenoxy)-2-methylphenyl]carbamate]	111%
0.161 µM	107%	>87	> 14 µM	46%	0.13 µM	COc1c(COC(=O)Nc2ccc(Oc3cccc(F)c3)cc2F)ccc2c1C(=O)N(C1CCC(=O)NC1=O)C2 (centres unmarked) [Example 16, [2-(2,6-dioxopiperidin-3-yl)-4-methoxy-3-oxo-2,3-dihydro-1H-isoindol-5-yl]methyl N-[2-fluoro-4-(3-fluorophenoxy)phenyl]carbamate]	105%
0.184 µM	107%	>76	> 14 µM	37%	0.187 µM	COc1c(COC(=O)Nc2ccc(Oc3cc(F)c(F)c(F)c3)cc2Cl)ccc2c1C(=O)N(C1CCC(=O)NC1=O)C2 (centres unmarked) [Example 25, [2-(2,6-dioxopiperidin-3-yl)-4-methoxy-3-oxo-2,3-dihydro-1H-isoindol-5-yl]methyl N-[2-chloro-4-(3,4,5-trifluorophenoxy)phenyl]carbamate]	96%
0.447 µM	99%	>31	> 14 µM	15%	0.225 µM	COc1c(COC(=O)Nc2ccc(Cc3ccc(F)c(F)c3)cc2)ccc2c1C(=O)N(C1CCC(=O)NC1=O)C2 (centres unmarked) [Example 17, [2-(2,6-dioxopiperidin-3-yl)-4-methoxy-3-oxo-2,3-dihydro-1H-isoindol-5-yl]methyl N-{4-[(3,4-difluorophenyl)methyl]phenyl}carbamate]	114%
0.179 µM	101%	>78	> 14 µM	20%	0.044 µM	NC(=O)COc1c(COC(=O)Nc2ccc(Oc3ccc(F)c(F)c3)cc2)ccc2c1C(=O)N(C1CCC(=O)NC1=O)C2 (centres unmarked) [Example 176, [4-(carbamoylmethoxy)-2-(2,6-dioxopiperidin-3-yl)-3-oxo-2,3-dihydro-1H-isoindol-5-yl]methyl N-[4-(3,4-difluorophenoxy)phenyl]carbamate]	112%
0.015 µM	109%	>930	> 14 µM	0%	0.052 µM	O=C1CCC(N2Cc3ccc(COC(=O)Nc4ccc(Oc5ccc(F)c(F)c5)cc4)c(OC4CCCOCC4)c3C2=O)C(=O)N1 (centres unmarked) [Example 170, [2-(2,6-dioxopiperidin-3-yl)-4-(oxepan-4-yloxy)-3-oxo-2,3-dihydro-1H-isoindol-5-yl]methyl N-[4-(3,4-difluorophenoxy)phenyl]carbamate]	142%
0.139 µM	104%	>100	> 14 µM	48%	0.298 µM	CC(C)Oc1c(COC(=O)Nc2ccc(Oc3cccc(Cl)c3)cc2)ccc2c1C(=O)N(C1CCC(=O)NC1=O)C2 (centres unmarked) [Example 58, [2-(2,6-dioxopiperidin-3-yl)-3-oxo-4-(propan-2-yloxy)-2,3-dihydro-1H-isoindol-5-yl]methyl N-[4-(3-chlorophenoxy)phenyl]carbamate]	109%
0.463 µM	77%	>30	> 14 µM	25%	2.08 µM	COc1cc(Oc2ccc(F)cc2OC)ccc1NC(=O)OCc1ccc2c(c1OC)C(=O)N(C1CCC(=O)NC1=O)C2 (centres unmarked) [Example 50, [2-(2,6-dioxopiperidin-3-yl)-4-methoxy-3-oxo-2,3-dihydro-1H-isoindol-5-yl]methyl N-[4-(4-fluoro-2-methoxyphenoxy)-2-methoxyphenyl]carbamate]	77%
0.185 µM	94%	>76	> 14 µM	9%	0.223 µM	O=C1CCC(N2Cc3ccc(COC(=O)Nc4ccc(Oc5ccc(F)cc5Cl)cc4)c(Oc4ccccc4)c3C2=O)C(=O)N1 (centres unmarked) [Example 70, [2-(2,6-dioxopiperidin-3-yl)-3-oxo-4-phenoxy-2,3-dihydro-1H-isoindol-5-yl]methyl N-[4-(2-chloro-4-fluorophenoxy)phenyl]carbamate]	114%
0.353 µM	104%	>40	> 14 µM	15%	1.23 µM	COc1c(COC(=O)Nc2ccc(N(C)c3cccc(F)c3)cc2)ccc2c1C(=O)N(C1CCC(=O)NC1=O)C2 (centres unmarked) [Example 8, [2-(2,6-dioxopiperidin-3-yl)-4-methoxy-3-oxo-2,3-dihydro-1H-isoindol-5-yl]methyl N-{4-[(3-fluorophenyl)(methyl)amino]phenyl}carbamate]	99%
0.198 µM	106%	>71	> 14 µM	25%	0.287 µM	COc1c(COC(=O)Nc2ccc(Oc3cc(F)c(F)cc3C)cc2F)ccc2c1C(=O)N(C1CCC(=O)NC1=O)C2 (centres unmarked) [Example 94, [2-(2,6-dioxopiperidin-3-yl)-4-methoxy-3-oxo-2,3-dihydro-1H-isoindol-5-yl]methyl N-[4-(4,5-difluoro-2-methylphenoxy)-2-fluorophenyl]carbamate]	107%
0.299 µM	118%	>47	> 14 µM	33%	0.003 µM	COc1c(COC(=O)Nc2ccc(Oc3ccc(F)cc3F)cc2)ccc2c1C(=O)N(C1CCC(=O)NC1=O)C2 (centres unmarked) [Example 5, [2-(2,6-dioxopiperidin-3-yl)-4-methoxy-3-oxo-2,3-dihydro-1H-isoindol-5-yl]methyl N-[4-(2,4-difluorophenoxy)phenyl]carbamate]	131%
0.094 µM	108%	>149	> 14 µM	22%	0.254 µM	COc1c(COC(=O)Nc2ccc(Oc3ccc(F)cc3)cc2)ccc2c1C(=O)N(C1CCC(=O)NC1=O)C2 (centres unmarked) [Example 84, [2-(2,6-dioxopiperidin-3-yl)-4-methoxy-3-oxo-2,3-dihydro-1H-isoindol-5-yl]methyl N-[4-(4-fluorophenoxy)phenyl]carbamate]	95%
0.015 µM	101%	>937	> 14 µM	21%	0.047 µM	CC(C)(O)COc1c(COC(=O)Nc2ccc(Oc3ccc(F)c(F)c3)cc2)ccc2c1C(=O)N(C1CCC(=O)NC1=O)C2 (centres unmarked) [Example 159, [2-(2,6-dioxopiperidin-3-yl)-4-(2-hydroxy-2-methylpropoxy)-3-oxo-2,3-dihydro-1H-isoindol-5-yl]methyl N-[4-(3,4-difluorophenoxy)phenyl]carbamate]	145%
